The NIST ThermoML archive (doi:10.1021/je800331n)
± gives the expanded uncertainty stated by the source.

Details: Liquid, Vibrating tube method

## CCCCn1cc[n+](C)c1.F[P-](F)(F)(F)(F)F [1-butyl-3-methylimidazolium hexafluorophosphate]
298.15 K
  mass density: 1366.57 ± 0.55 kg/m3
303.15 K
  mass density: 1362.23 ± 0.54 kg/m3
308.15 K
  mass density: 1357.92 ± 0.54 kg/m3
313.15 K
  mass density: 1353.63 ± 0.53 kg/m3
323.15 K
  mass density: 1345.33 ± 0.53 kg/m3

## CCCCn1cc[n+](C)c1.F[B-](F)(F)F [1-butyl-3-methylimidazolium tetrafluoroborate]
298.15 K
  mass density: 1192.03 ± 0.39 kg/m3
303.15 K
  mass density: 1188.38 ± 0.39 kg/m3
313.15 K
  mass density: 1181.25 ± 0.38 kg/m3
323.15 K
  mass density: 1174.18 ± 0.37 kg/m3
333.15 K
  mass density: 1167.09 ± 0.37 kg/m3
343.15 K
  mass density: 1160.17 ± 0.36 kg/m3
353.15 K
  mass density: 1152.63 ± 0.36 kg/m3
